# Source: US9351981B2, “Use of PKC-iota inhibitors for the treatment of breast cancer” (UNIVERSITY OF SOUTH FLORIDA, priority 2007, dated 2016)
# Assays:
# PKC-ι = target: T1, PKC-ι (Homo sapiens, UniProt P41743); assay: Inhibition of PKC-ι activity; assay type: biochemical
# T1 sequence (P41743 10-596 limits assumed): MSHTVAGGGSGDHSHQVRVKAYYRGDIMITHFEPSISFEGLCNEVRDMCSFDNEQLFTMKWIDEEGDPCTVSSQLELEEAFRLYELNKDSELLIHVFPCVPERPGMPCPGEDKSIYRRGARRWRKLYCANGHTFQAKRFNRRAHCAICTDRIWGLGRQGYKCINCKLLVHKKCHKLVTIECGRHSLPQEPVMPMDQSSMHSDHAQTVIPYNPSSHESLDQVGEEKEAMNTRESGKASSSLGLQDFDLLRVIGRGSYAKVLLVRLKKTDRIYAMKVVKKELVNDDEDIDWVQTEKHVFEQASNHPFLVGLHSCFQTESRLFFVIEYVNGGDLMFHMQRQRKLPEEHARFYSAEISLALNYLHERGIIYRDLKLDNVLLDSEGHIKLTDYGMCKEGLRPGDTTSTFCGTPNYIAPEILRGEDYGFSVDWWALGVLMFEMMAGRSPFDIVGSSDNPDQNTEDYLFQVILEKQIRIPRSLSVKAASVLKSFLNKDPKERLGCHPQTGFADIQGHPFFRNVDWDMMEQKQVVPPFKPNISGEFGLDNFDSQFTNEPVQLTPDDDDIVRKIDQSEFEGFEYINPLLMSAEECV
# cancer cells [1] = assay: Chromatin condensation, DAPI staining of the nucleus; assay type: cell-based
# From the text: (§1) In addition, the present inventors have discovered that ICA-1 promotes apoptosis of cancer cells.
# cancer cells [2] = assay: DNA fragmentation, TUNEL assay; assay type: cell-based
# From the text: as §1
# IKK-α/IKK-β = assay: Phosphorylation of IKK-α/IKK-β; assay type: cell-based
# [3] = system: MDA-MB-468 breast cancer cells; assay: Proliferation of MDA-MB-468 breast cancer cells after ICA-1, viable cell count by Trypan blue exclusion; assay type: cell-based, human; conditions: vs vehicle control
# Description: Five thousand cells were plated in T-25 cm^2 flasks. Twenty-four hours post vehicle control or ICA-1 treatment, the number of viable cells was counted by Trypan blue exclusion. Data shown are the mean+/−SD of two independent experiments.
# Briefly, MDA-MB-468 breast cancer cells were treated with 0.1 μM or 0.5 μM ICA-1. Cell viability and cell count were determined 24 hours following addition of either vehicle control or ICA-1.
structure (smiles),measurement,setting,value
"NC(=O)c1ncn(C2CC(COP(=O)(O)O)C(O)C2O)c1N (stereo not drawn) [ICA-1, 1H-imidazole-4-carboxamide,5-amino-1-[2,3-dihydroxy-4-[(phosphonooxy)methyl]cyclopentyl]-,[1R-(1α, 2β, 3β, 4α)]]",activity of PKC-ι,PKC-ι,potently inhibits
same,chromatin condensation in cancer cells,cancer cells [1],induced chromatin condensation
same,DNA fragmentation in cancer cells,cancer cells [2],induced DNA fragmentation
same,phosphorylation of IKK-α/IKK-β,IKK-α/IKK-β,inhibits the phosphorylation
same,decrease of proliferation of MDA-MB-468 cells,"[3]; 0.1 μM ICA-1, 24 hours post-treatment",77%
same,decrease of proliferation of MDA-MB-468 cells,"[3]; 0.5 μM ICA-1, 24 hours post-treatment, P=0.05",50%
